In a melting point compilation (Tetko et al.; mined from patent text by program, amines drawn as free bases though some values may be those of a salt):

| Compound | melting point |
| --- | --- |
| CN(C)CCCOc1ccc(N(C(=O)c2ccc(Cl)cc2)c2ccccc2)cc1 | 81.5 to 85.5 °C |
| Cc1c(Cc2cccc(C(F)(F)F)c2)oc2c(-c3cc(C(=O)NCCC#N)ccn3)cccc12 | 200 to 201 °C |
| CC(=O)c1cc(Cc2ccccc2)c(O)c2ccccc12 | 139 to 141 °C |
| N#Cc1cccc(C(=O)N[C@H]2C[C@H](C(=O)O)Nc3cc(Cl)cc(Cl)c32)c1 (relative stereo) | 229 to 231 °C |
| CCCCCCCCCCOc1cnc(-c2ccc(C#CCCCC(C)O)cc2)nc1 (centres undefined) | 82 to 83 °C |
| Cc1cc(-c2ccccc2)c(C)cc1-c1ccccc1 | 301 to 304 °C |
| O=[N+]([O-])c1cc(Br)ccc1Nc1cccc(-n2ccnc2)n1 | 194 to 195 °C |
| COC(=O)c1cc(N)c(F)c(Br)n1 | 187 to 190 °C |
| Cc1ccc(S(=O)(=O)OCCOc2ccc(N)c(CS(=O)(=O)c3ccccc3)c2)cc1 | 144 to 146 °C |
| COC(=O)c1cc2cc3c(cc2[nH]1)OCC(=O)N3 | 188 to 196 °C |
| O=C1c2ccccc2OC1Br (centres undefined) | 60 °C |
| CN(c1cccc2cc(-c3ncc(CN4CCS(=O)(=O)CC4)s3)[nH]c12)S(=O)(=O)c1cccs1 | 225 to 226 °C |
| COc1ccc(CSc2ccncc2C(=O)O)cc1 | 230 °C |
| CNC(=O)NS(=O)(=O)c1cc(CCNC(=O)c2cc(C(C)(C)C)ccc2OC)ccc1OC | 209 to 212 °C |
| CS(=O)(=O)Nc1ccc([N+](=O)[O-])cc1C(=O)C1CCCCC1 | 178 to 179 °C |
| CCn1c2ccc(C(=O)c3ccc(-n4c5ccccc5c5ccccc54)cc3)cc2c2cc(C(C)=NO)ccc21 | 151 to 154 °C |
| COC(=O)c1nn(-c2ccc(Cl)cc2Cl)c(-c2ccc(Cl)cc2)c1CF | 114 °C |
| CC(=O)OCCOc1cccc(C(N)=O)c1 | 121 to 122 °C |
| CSc1snc(SCOCC#CI)c1C#N | 87 to 88 °C |
| CC(C)(C)c1ccc(S(=O)(=O)Oc2ccc(C(C)(C)c3ccc(OS(=O)(=O)c4ccc(C(C)(C)C)cc4)cc3)cc2)cc1 | 124 to 127 °C |
| Cc1noc(NS(=O)(=O)c2ccccc2-c2ccc(-c3ncco3)cc2CNC(C)C(F)(F)F)c1C (centres undefined) | 60 to 70 °C |
| CCC(=O)c1ccc(C(CC(=O)Nc2cc(C(N)=O)ccc2C(C)(C)C)CC(C)C)c(OC)c1 (centres undefined) | 186 to 187 °C |
| Nc1nc(-n2cc(C(=O)O)c(=O)c3cc(F)c(N4CC(O)C4)c(Cl)c32)c(F)cc1F | 235 to 238 °C |

| Compound | melting point |
| --- | --- |
| Cc1oc(C2CCCCC2)nc1CC(=O)O | 102 to 103 °C |
| CCOC(=O)COc1ccc(CSCC(=O)OCC)cc1NC(=O)c1ccc(OCCCCc2ccccc2)cc1 | 56 to 57 °C |
| Cc1cc([N+](=O)[O-])ccc1C(=O)Nc1ccc2ccc(Cl)nc2n1 | 229 °C |
| COc1ccc(Nc2cc(Cl)ccc2[N+](=O)[O-])cc1 | 98 °C |
| COc1ccc(C2=NNC(=O)[C@H]3CC=CC[C@@H]23)cc1OC1CCCC1 (relative stereo) | 166 to 168 °C |
| COc1ccc2c(c1)CC[C@@H]1[C@@H]2CC[C@@]2(C)[C@H]1CCC2(OC)OC | 104 to 116 °C |
| Clc1ccc2[nH]c3c4c(Cl)cccc4nc-3cc2c1 | 221 to 222 °C |
| COC(OC)c1cc(=O)c2ccccc2o1 | 64 to 68 °C |
| COc1ccc(-c2cnnc(-c3ccc(C(F)(F)F)cc3F)c2N)cc1 | 215 to 216 °C |
| Cc1ccc(-c2ccc3c(c2)C=C(C(=O)N[C@H]2CC[C@H](CN(C)C4CCOCC4)CC2)CO3)cc1 | 141 to 143 °C |
| Nc1cc(C(=O)Nc2ccncc2)ccc1OCC1CCCCC1 | 193 to 194 °C |
| CCOC(=O)COc1ccccc1C(=O)Nc1ccccc1Sc1ccccc1-c1nnn[nH]1 | 145 to 146 °C |
| CCCOc1ccc(N(C)C)cc1-c1ncc(-c2nnn[nH]2)c(=O)[nH]1 | 258 to 259 °C |
| CC(C)CC(OC(=O)c1ccncc1)C(=O)OCc1ccccc1 (racemic) | 49 to 50 °C |
| COC(=O)c1cncc(OCc2ccc(OCc3nc(-c4ccccc4)oc3C)cc2)c1 | 138 to 139 °C |
| Cn1c(C(F)(F)F)cc(=O)n(-c2ccc3snc(C(Br)C#N)c3c2)c1=O (centres undefined) | 185 to 187 °C |
| Cc1nn(-c2ccc(F)cc2)cc1C(=O)Nc1ccc(OCC(C)(C)C)c(C#N)c1 | 181 to 182 °C |
| CC[C@@H](c1ccccc1)N(Cc1ccc(C(=O)OC)cc1)S(=O)(=O)c1ccc(C(F)(F)F)cc1 | 70 to 72 °C |
| Cc1cc(C)c(C(=O)Nc2ccc(-n3nc(C(F)(F)F)cc3C(F)(F)F)cc2)c(C)c1 | 203 to 205 °C |
| CCCCCCCCCCCc1cc2ccc(C(=O)O)cc2n1C | 165 to 168 °C |
| Fc1ccc(C(Cl)(Cn2cncn2)C(F)(F)F)c(F)c1 (centres undefined) | 87 to 88 °C |
| CCCCCS(=O)(=O)NC(=O)/C=C/c1ccc(OCCC(C)=O)cc1Oc1ncc(C(F)(F)F)cc1Cl | 180 to 181 °C |
| COc1ccc(/C=C/c2c(Cl)cccc2Cl)cc1OC1CCCC1 | 47 to 49 °C |

| Compound | melting point |
| --- | --- |
| O=C(O)CN1C(=O)OC[C@@H]1c1ccccc1 | 106 to 108 °C |
| CCCCCCCCCCOc1ccc(C(=O)c2ccc(OC(=O)[C@H]3CCCO3)cc2)cc1 | 80 °C |
| CCc1ccc2c(c1)C(C(=O)O)c1ccccc1CO2 (centres undefined) | 154 to 155 °C |
| COc1cccc(C(=O)O)c1N | 172 to 175 °C |
| O=C(O)c1ccc2c([N+](=O)[O-])c(O)c(O)cc2c1 | > 310 °C |
| Cc1nc2ccccc2n1-c1ccc(C#N)cc1 | 166 to 168 °C |
| CN(C)C(=O)C1CCc2c([nH]c3ccc(Cl)cc23)C1 (centres undefined) | 176 to 177 °C |
| CCOC(=O)C1CCCc2[nH]c3c(C)ccc(OC)c3c21 (centres undefined) | 119 to 122 °C |
| OCc1ccccc1-c1ccc(CBr)cc1 | 101 to 106 °C |
| O=C(O)C1=Cc2cc(Cl)c(C(F)(F)F)cc2OC1C(F)(F)F (centres undefined) | 181 to 182 °C |
| Cc1cccc(NC(=O)c2ccccc2CN2C(=O)C3(COc4cc5c(cc43)CCO5)c3ccccc32)c1 (centres undefined) | 229 to 231 °C |
| COc1cccc2sc(-c3ccc(C(=O)O)cc3)nc12 | 289 to 291 °C |
| Oc1ccc2c(c1)COc1c-2cc2ccc(O)cc2c1-c1ccc(F)cc1 | 229 to 232 °C |
| Oc1c2c(nn1-c1nc3ccc(F)cc3s1)CCc1ccccc1-2 | 246 to 247 °C |
| CCOC(=O)Cc1ccc(NC(=O)C(COc2ccccc2Cl)NS(=O)(=O)c2ccc(Cl)cc2)cc1 (racemic) | 141 to 142 °C |
| CSCCOC(=O)CSc1cc(N=c2sc(=O)n3n2CCCC3)ccc1Cl | 57 to 58 °C |
| CSc1nc(O)c(C#N)n1C(C)C | 196 to 198 °C |
| Cc1c(SCCCSCc2ccc(Cl)s2)ccnc1CNc1cnc2ccccc2c1 | 127 to 131 °C |
| O=C1Cc2cc3c(cc2C(c2ccccc2Cl)N1)OCO3 (centres undefined) | 207 to 209 °C |
| CCOC(=O)c1ccc(-c2cc(O)c(C(CC(C)C)SC3CCCC3)c(=O)o2)cc1 (centres undefined) | 174 to 176 °C |
| CCCCCC(=O)ONC(=N)c1ccc(NC(=O)CCCC(=O)Nc2ccc(C(=N)NOC(=O)CCCCC)cc2)cc1 | 182 to 184 °C |
| CCOC(=O)CN(Cc1ccccc1Cl)c1ccc(C(O)(C(F)(F)F)C(F)(F)F)cc1 | 146 °C |
| COc1c(CCC(=O)O)cccc1Oc1ccccc1C | 71 to 75 °C |
